Assay [1] deals with T1, EML4-ALK fusion protein v1 (Homo sapiens, UniProt Q9UM73, D1529E/I1461V/K1491R).
T1 construct: FLAG (N); made in house
Put plainly: Inhibitory activity against the kinase activity of EML4-ALK fusion protein v1 (Test Example 1). Format: biochemical. The note with it: ATP 100 μM, reaction 1 hour, HTRF KinEASE-TK. How it is done:
EML4-ALK fusion protein v1 (purified from BA/F3 cells expressing EML4-ALK fusion protein v1) was investigated for its phosphorylation activity toward a peptide substrate by using a kinase activity detection kit (HTRF KinEASE-TK; Cisbio Inc.). […] The ATP concentration used was 100 μM. Another reaction solution was prepared to contain the enzyme protein but no test compound (in which the solvent DMSO alone was added at 0.4% in place of the test compound), followed by reaction in the same manner with or without ATP addition. […] The concentration causing 50% inhibition (IC50) was calculated for each test compound by the logistic regression method.
N-terminally FLAG-tagged EML4-ALK fusion protein v1 was inserted into a vector pMX-iresCD8 capable of co-expression of insert cDNA and cell surface antigen CD8 (J. Biol. Chem., 2001, vol. 276, p. 39012-39020) to create a vector FLAG-EML4-ALKv1/pMX-iresCD8 expressing both FLAG-EML4-ALKv1 and CD8. FLAG-EML4-ALKv1/pMX-iresCD8 was used to create a recombinant retrovirus in the same manner as described above and infected into mouse lymphoid cell line BA/F3 cells. Using a magnetic bead reagent for cell separation and a purification column (anti-CD8 monoclonal antibody immobilized on magnetic beads and a MiniMACS purification column; both are products of Miltenyi Biotec Inc.), cell surface CD8-expressing cells were purified conveniently. […] After washing 3 times with PBS, the cells were lysed in a lysis solution (50 mM Tris.HCl (pH 7.4), 150 mM NaCl, 1% Triton X100, 5 mM EDTA, 5 mM EGTA, 1 mM NaVO4, 1 mM DTT and protease inhibitor cocktail complete). The EML4-ALK fusion protein v1 present in the supernatant obtained after centrifugation was purified using ANTI-FLAG M2 Affinity Gel (SIGMA-ALDRICH Inc.) according to the method described in the product information document.
The EML4-ALK fusion protein v1 purified as above was investigated for its phosphorylation activity toward a peptide substrate using a kinase activity detection kit (HTRF KinEASE-TK; Cisbio Inc.). Using TK substrate 1, which was included in the kit, as the substrate, and after adding no ATP or 100 μM ATP, the mixtures were reacted at room temperature for 1 hour, and the count of HTRF was detected as recommended by the Kits manufacturer.
Background: In TR-FRET formats the signal depends on donor and acceptor labels being close together.

In assay [2] the test system is human non-small cell lung cancer cell line NCI-H2228 cells (EML4-ALK fusion protein-expressing cells). Put plainly: Inhibitory effect against anchorage-independent cell growth of NCI-H2228 cells (Test Example 3). Format: cell-based. To be noted: 120 h, spheroid plate, 5 days, CellTiter-Glo. The text has this: Measurement for anchorage-independent cell growth (colony method, etc) has been known to be a system for investigating the anticancer action (pharmacological effect) of test compounds (Clinical Oncology, second edition, Cancer and Chemotherapy Publishers Inc.). In place of the colony method, there is a following method using spheroid plates for measuring the growth of non-attached cells.
(§1) In a 96-well spheroid plate (Sumilon Celltight Spheroid 96U; Sumitomo Bakelite Co., Ltd., Japan), human non-small cell lung cancer cell line NCI-H2228 cells were seeded at 2000 cells per well in RPMI1640 medium (Invitrogen) containing 10% fetal bovine serum. NCI-H2228 cells are those expressing another EML4-ALK fusion protein, which is different from the EML4-ALK fusion protein v1 because it is encoded by an EML4-ALK fusion polynucleotide whose fusion point on EML4 cDNA is different from that of the EML4-ALK fusion polynucleotide v1, but whose ALK region is the same as that of the EML4-ALK fusion polynucleotide v1. The above NCI-H2228 cells seeded in the plate were cultured overnight under 5% CO2 at 37° C., followed by addition of a test compound (final concentration: 10 μM to 1 nM). As a negative control, DMSO used as a solvent was added at the same concentration as the test compound. Then, the cells were cultured under 5% CO2 at 37° C. for 5 days. A cell counting reagent (CellTiter-Glo™ Luminescent Cell Viability Assay; Promega) was added and agitated for 20 minutes, followed by measurement with a luminometer (ML3000 microtiter plate luminometer; Dynatech Laboratories).
On the technique in general: In ATP-based viability assays light output follows the ATP content of the culture.

Assay [3] has as its system human non-small cell lung cancer cell line HCC827 cells (mutant EGFR protein-expressing cells). The experiment in a line: Inhibitory effect against anchorage-independent cell growth of HCC827 cells (Test Example 4). Format: cell-based. The note with it: 120 h, spheroid plate, 5 days, CellTiter-Glo. How it is done:
as §1
Evaluation of Inhibitory Effect Against Anchorage-Independent Cell Growth of Human Non-Small Cell Lung Cancer Cell Line HCC827 Cells (Mutant EGFR (with Partial Deletion of Exon 19 in EGFR) Protein-Expressing Cells, American Type Culture Collection)
Evaluation was performed in the same manner as shown in Test Example 3.

Assay [4] concerns the target T1, EML4-ALK fusion protein v1. Put plainly: Inhibitory effect of compounds against the in vitro kinase activity of EML4-ALK fusion protein v1, IC50 (Test Example 14). To be noted: 8 concentrations 1000 nM to 0.3 nM. Format: biochemical. How it is done: In the same manner as shown in Test Example 12(3), compounds were investigated for their inhibitory effect against the in vitro kinase activity of EML4-ALK fusion protein v1 using the kinase activity detection kit mentioned above. Test compounds were each added to a reaction solution containing the EML4-ALK fusion protein v1 to give 8 final concentrations from 1000 nM to 0.3 nM, followed by addition of ATP. Another reaction solution was prepared to contain the EML4-ALK fusion protein v1 but no test compound (in which the solvent DMSO alone was added at 0.4% in place of the test compound), followed by reaction with or without ATP addition. The rest of the operations were carried out as described in Test Example 12(2). […] The concentration causing 50% inhibition (IC50) was calculated for each test compound by the logistic regression method.

The structures appear in SMILES notation. pIC50: −log10 of the molar value.

The term pIC50 denotes the negative decadic logarithm of the IC50, by convention in mol/L. A lower pIC50 goes with a high IC50.

T1 sequence (Q9UM73 with tags, fused parts or gaps I1461V/K1491R/D1529E): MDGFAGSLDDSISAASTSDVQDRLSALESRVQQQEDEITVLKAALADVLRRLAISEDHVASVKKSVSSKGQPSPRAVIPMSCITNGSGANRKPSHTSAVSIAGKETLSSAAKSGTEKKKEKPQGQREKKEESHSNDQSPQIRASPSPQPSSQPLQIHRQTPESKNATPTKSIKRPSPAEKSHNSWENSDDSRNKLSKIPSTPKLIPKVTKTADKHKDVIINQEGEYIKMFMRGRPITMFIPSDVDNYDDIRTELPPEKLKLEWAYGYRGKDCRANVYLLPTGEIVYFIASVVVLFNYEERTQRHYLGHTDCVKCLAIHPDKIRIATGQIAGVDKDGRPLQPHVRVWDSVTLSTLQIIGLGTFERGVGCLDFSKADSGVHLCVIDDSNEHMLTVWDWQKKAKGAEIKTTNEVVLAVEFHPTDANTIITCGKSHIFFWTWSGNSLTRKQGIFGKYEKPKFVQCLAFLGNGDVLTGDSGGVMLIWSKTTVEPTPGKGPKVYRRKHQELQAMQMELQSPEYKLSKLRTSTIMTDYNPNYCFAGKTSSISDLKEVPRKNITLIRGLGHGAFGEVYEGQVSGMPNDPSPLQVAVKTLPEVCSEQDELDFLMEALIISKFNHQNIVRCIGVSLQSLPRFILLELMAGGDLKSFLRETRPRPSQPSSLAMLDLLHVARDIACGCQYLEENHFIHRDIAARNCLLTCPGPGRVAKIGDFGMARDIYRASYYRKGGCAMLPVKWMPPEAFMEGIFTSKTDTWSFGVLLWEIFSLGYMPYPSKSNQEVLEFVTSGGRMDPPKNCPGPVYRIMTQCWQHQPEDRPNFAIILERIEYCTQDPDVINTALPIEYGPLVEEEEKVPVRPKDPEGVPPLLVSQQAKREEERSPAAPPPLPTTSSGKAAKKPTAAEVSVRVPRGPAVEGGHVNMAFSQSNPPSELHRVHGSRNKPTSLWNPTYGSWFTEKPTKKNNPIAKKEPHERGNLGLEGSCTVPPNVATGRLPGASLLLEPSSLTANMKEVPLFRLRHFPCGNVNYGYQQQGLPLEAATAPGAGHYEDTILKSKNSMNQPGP

On to `COc1cc(N2CCC(N3CCN(C)CC3)CC2)ccc1Nc1nc(Nc2ccccc2S(=O)(=O)C(C)C)c2ccccc2n1` [Example 1, N^4-[2-(isopropylsulfonyl)phenyl]-N^2-{2-methoxy-4-[4-(4-methylpiperazin-1-yl)piperidin-1-yl]phenyl}quinazoline-2,4-diamine], for which the negative-log IC50 (pIC50) in assay [1] is 7.38; in assay [2] it was 6.33; in assay [3] it was 5.60; in assay [4] it was 7.38.

The values above are taken from US20130096100A1, “DI(ARYLAMINO)ARYL COMPOUND” (ASTELLAS PHARMA INC., priority 2007, published 2013).
